From patent US12338296B2, “Peptides and compounds that bind to elongation initiation factor 4E” (AGENCY FOR SCIENCE, TECHNOLOGY AND RESEARCH, priority 2019, dated 2025)
Peptide text beside a SMILES is read from it.

These molecules were tested against T1, eIF4E (Homo sapiens, UniProt P06730) (assay: Surface plasmon resonance Kd determination on immobilized eIF4E (Biacore T100, CM5 chip)). Conditions: KD relative to EE-2 (SPR).
T1 construct: made in house; Plasmid and cells were provided by Cyclacel Ltd., Dundee
T1 sequence (P06730 whole entry): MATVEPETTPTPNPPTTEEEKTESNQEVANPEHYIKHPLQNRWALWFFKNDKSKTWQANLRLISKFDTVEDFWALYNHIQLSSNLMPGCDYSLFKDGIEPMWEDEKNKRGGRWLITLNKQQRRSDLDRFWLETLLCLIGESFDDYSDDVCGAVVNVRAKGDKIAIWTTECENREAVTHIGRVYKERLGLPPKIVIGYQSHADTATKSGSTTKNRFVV
Format: binding
Experimental: Surface Plasmon Resonance (for Structural Activity Relationship (SAR) Tables)
For stock peptide solutions, the compounds were dissolved in 100% DMSO to a concentration of 10 mM; further dilutions of the peptide stock solutions into DMSO and/or running buffer were performed immediately prior to analysis. Running buffer consisted of 10 mM Hepes pH 7.6, 0.15 M NaCl, and 0.1% Tween20. Stock/DMSO diluted peptide solutions were diluted into 1.03× running buffer to make a peptide solution with 3% DMSO final concentration. […] Surface Plasmon resonance experiments were performed on a Biacore T100 machine.
Pure eIF4E was immnobilized on a CM5 sensor chip. The CM5 chip was conditioned with a 6 s injection of 100 mM HCL, followed by a 6 s injection of 0.1% SDS and completed with a 6 s injection of 50 mM NaOH at a flow rate of 100 μl/min. Activation of the sensor chip surface was performed with a mixture of NHS (115 mg ml^−1) and EDC (750 mg ml^−1) for 7 min at 10 μl min^−1. […] The amount of eIF4E immobilized on the activated surface was controlled by altering the contact time of the protein solution and was approximately 1000 RU. After the immobilization of the protein, a 7-min injection (at 10 μl min^−1) of 1 M ethanolamine (pH 8.5) was used to quench excess active succinimide ester groups.
Six buffer blanks were first injected to equilibrate the instrument fully and then a solvent correction curve was performed followed by a further two blank injections. The solvent correction curve was setup by adding varying amount of 100% DMSO to 1.03× running buffer to generate a range of DMSO solutions (3.8%, 3.6%, 3.4%, 3.2%, 3%, 2.85%, 2.7% and 2.5% respectively). Using a flow rate of 50 μl/min, compounds were injected for 60 s and dissociation was monitored for 180 s. The data collection rate was 10 Hz. Kds were determined using the BiaEvaluation software (Biacore) and calculated from both the response of the eIF4E coated CM5 chips at equilibrium and also kinetically from the dissociation and association phase data for each of the peptides. Both the equilibrium and kinetic data were fitted to 1:1 binding models. Each individual peptide Kd was determined from three separate titrations. Within each titration at least two concentration points were duplicated to ensure stability and robustness of the chip surface.
Kd were determined using surface plasmon resonance (SPR) as described in Methods.

| Molecule | Fold change |
| --- | --- |
| CSCC[C@@H]1NC(=O)[C@H](CCC(=O)O)NC(=O)[C@@H](NC(=O)[C@H](C)N)CSSC[C@@H](C(=O)NCC(N)=O)NC(=O)[C@H](CC(=O)O)NC(=O)[C@H](CCCCN)NC(=O)[C@H](Cc2ccccc2)NC(=O)[C@H](Cc2ccccc2)NC(=O)CNC1=O [EE-39] (HELM PEPTIDE1{A.C.E.M.G.F.F.K.D.C.G.[am]}$PEPTIDE1,PEPTIDE1,2:R3-10:R3$$$V2.0) | 0.5 |
| CSCC[C@@H]1NC(=O)[C@H](CCC(=O)O)NC(=O)[C@@H](NC(=O)[C@H](C)NC(C)=O)CSSC[C@@H](C(=O)NCC(N)=O)NC(=O)[C@H](CC(=O)O)NC(=O)[C@H](CCC(N)=O)NC(=O)[C@H](Cc2ccccc2)NC(=O)[C@H](Cc2ccccc2)NC(=O)CNC1=O [EE-11] | 4.9 |
| CSCC[C@@H]1NC(=O)[C@H](CCC(=O)O)NC(=O)[C@@H](N)CSSC[C@@H](C(N)=O)NC(=O)[C@H](CC(=O)O)NC(=O)[C@H](C)NC(=O)[C@H](Cc2ccccc2)NC(=O)[C@H](Cc2ccccc2)NC(=O)CNC1=O [EE-44] (HELM PEPTIDE1{C.E.M.G.F.F.A.D.C.[am]}$PEPTIDE1,PEPTIDE1,1:R3-9:R3$$$V2.0) | 0.4 |
| CSCC[C@@H]1NC(=O)[C@H](CCC(=O)O)NC(=O)[C@@H](NC(=O)[C@H](C)N)CSSC[C@@H](C(=O)NCC(N)=O)NC(=O)[C@H](CC(=O)O)NC(=O)[C@H](CC(C)C)NC(=O)[C@H](Cc2ccccc2)NC(=O)[C@H](Cc2ccccc2)NC(=O)CNC1=O [EE-41] (HELM PEPTIDE1{A.C.E.M.G.F.F.L.D.C.G.[am]}$PEPTIDE1,PEPTIDE1,2:R3-10:R3$$$V2.0) | 0.9 |
| CSCC[C@@H]1NC(=O)[C@H](CCC(=O)O)NC(=O)[C@@H](NC(=O)[C@H](C)N)CSSC[C@@H](C(=O)NCC(N)=O)NC(=O)[C@H](CC(=O)O)NC(=O)CNC(=O)[C@H](Cc2ccccc2)NC(=O)[C@H](Cc2ccccc2)NC(=O)CNC1=O [EE-40] (HELM PEPTIDE1{A.C.E.M.G.F.F.G.D.C.G.[am]}$PEPTIDE1,PEPTIDE1,2:R3-10:R3$$$V2.0) | 1.9 |

Same assay, conditions: SPR, eIF4E immobilized on CM5 chip, 1:1 binding model, three separate titrations

| Molecule | Kd [µM] |
| --- | --- |
| CSCC[C@@H]1NC(=O)[C@H](CCC(=O)O)NC(=O)[C@@H](NC(=O)[C@H](C)N)CSSC[C@@H](C(=O)NCC(N)=O)NC(=O)[C@H](CC(=O)O)NC(=O)[C@H](CCC(N)=O)NC(=O)[C@H](CC(C)C)NC(=O)[C@H](CC(C)C)NC(=O)CNC1=O [EE-38] (HELM PEPTIDE1{A.C.E.M.G.L.L.Q.D.C.G.[am]}$PEPTIDE1,PEPTIDE1,2:R3-10:R3$$$V2.0) | > 50 |
| CSCC[C@@H]1NC(=O)[C@H](CCC(=O)O)NC(=O)[C@@H](NC(=O)[C@H](C)N)CSSC[C@@H](C(=O)NCC(N)=O)NC(=O)[C@H](CC(=O)O)NC(=O)[C@H](CCC(N)=O)NC(=O)[C@H](Cc2ccccc2)NC(=O)[C@H](Cc2ccccc2)NC(=O)CCNC1=O [EE-27] (HELM PEPTIDE1{A.C.E.M.[bAla].F.F.Q.D.C.G.[am]}$PEPTIDE1,PEPTIDE1,2:R3-10:R3$$$V2.0) | > 50 |
| CSCC[C@@H]1NC(=O)[C@H](CCC(=O)O)NC(=O)[C@@H](NC(=O)[C@H](C)N)CSSC[C@@H](C(=O)NCC(N)=O)NC(=O)[C@H](CC(=O)O)NC(=O)[C@H](CCC(N)=O)NC(=O)[C@H](C)NC(=O)[C@H](Cc2ccccc2)NC(=O)CNC1=O [EE-2E] (HELM PEPTIDE1{A.C.E.M.G.F.A.Q.D.C.G.[am]}$PEPTIDE1,PEPTIDE1,2:R3-10:R3$$$V2.0) | > 50 |
| CSCC[C@@H]1NC(=O)[C@H](CCC(=O)O)NC(=O)[C@@H](NC(=O)[C@H](C)NC(C)=O)CSSC[C@@H](C(=O)NCC(N)=O)NC(=O)[C@H](CC(=O)O)NC(=O)[C@H](CCC(N)=O)NC(=O)[C@H](Cc2ccccc2)NC(=O)[C@H](Cc2ccccc2)NC(=O)CNC1=O [EE-11] | 1 |
| CSCC[C@@H]1NC(=O)[C@H](CCC(=O)O)NC(=O)[C@@H](NC(=O)[C@H](C)N)CSSC[C@@H](C(=O)NCC(N)=O)NC(=O)[C@H](CC(=O)O)NC(=O)[C@H](CCC(N)=O)NC(=O)[C@H](CC(C)C)NC(=O)[C@H](Cc2ccccc2)NC(=O)CNC1=O [EE-34] (HELM PEPTIDE1{A.C.E.M.G.F.L.Q.D.C.G.[am]}$PEPTIDE1,PEPTIDE1,2:R3-10:R3$$$V2.0) | > 50 |
| C[C@H](N)C(=O)N[C@H]1CSSC[C@@H](C(=O)NCC(N)=O)NC(=O)[C@H](CC(=O)O)NC(=O)[C@H](CCC(N)=O)NC(=O)[C@H](Cc2ccccc2)NC(=O)[C@H](Cc2ccccc2)NC(=O)CNC(=O)[C@H](C)NC(=O)[C@H](CCC(=O)O)NC1=O [EE-2B] (HELM PEPTIDE1{A.C.E.A.G.F.F.Q.D.C.G.[am]}$PEPTIDE1,PEPTIDE1,2:R3-10:R3$$$V2.0) | > 50 |
| CSCC[C@@H]1NC(=O)[C@H](CCC(=O)O)NC(=O)[C@@H](NC(=O)[C@H](C)N)CSSC[C@@H](C(=O)NCC(N)=O)NC(=O)[C@H](CC(=O)O)NC(=O)[C@H](CCC(N)=O)NC(=O)[C@H](Cc2ccccc2)NC(=O)[C@H](Cc2ccccc2)NC(=O)[C@@H]2CCCN2C1=O [EE-29] (HELM PEPTIDE1{A.C.E.M.P.F.F.Q.D.C.G.[am]}$PEPTIDE1,PEPTIDE1,2:R3-10:R3$$$V2.0) | > 50 |
| CSCC[C@@H]1NC(=O)[C@H](C)NC(=O)[C@@H](NC(=O)[C@H](C)N)CSSC[C@@H](C(=O)NCC(N)=O)NC(=O)[C@H](CC(=O)O)NC(=O)[C@H](CCC(N)=O)NC(=O)[C@H](Cc2ccccc2)NC(=O)[C@H](Cc2ccccc2)NC(=O)CNC1=O [EE-2A] (HELM PEPTIDE1{A.C.A.M.G.F.F.Q.D.C.G.[am]}$PEPTIDE1,PEPTIDE1,2:R3-10:R3$$$V2.0; bridges inferred) | 11 |
| CSCC[C@@H]1NC(=O)[C@H](CCC(=O)O)NC(=O)[C@@H](NC(=O)[C@H](C)N)CSSC[C@@H](C(=O)NCC(N)=O)NC(=O)[C@H](CC(=O)O)NC(=O)[C@H](CCC(N)=O)NC(=O)[C@H](Cc2ccccc2)NC(=O)[C@H](CC(C)C)NC(=O)CNC1=O [EE-33] (HELM PEPTIDE1{A.C.E.M.G.L.F.Q.D.C.G.[am]}$PEPTIDE1,PEPTIDE1,2:R3-10:R3$$$V2.0) | > 50 |
| CSCC[C@@H]1NC(=O)[C@H](CCC(=O)O)NC(=O)[C@@H](NC(=O)[C@H](C)N)CSSC[C@@H](C(=O)NCC(N)=O)NC(=O)[C@H](CC(=O)O)NC(=O)CNC(=O)[C@H](Cc2ccccc2)NC(=O)[C@H](Cc2ccccc2)NC(=O)CNC1=O [EE-40] (HELM PEPTIDE1{A.C.E.M.G.F.F.G.D.C.G.[am]}$PEPTIDE1,PEPTIDE1,2:R3-10:R3$$$V2.0) | 0.4 |
| CSCC[C@@H]1NC(=O)[C@H](CCC(=O)O)NC(=O)[C@@H](NC(=O)[C@H](C)N)CSSC[C@@H](C(=O)NCC(N)=O)NC(=O)[C@H](CC(=O)O)NC(=O)[C@H](CCC(N)=O)NC(=O)[C@H](Cc2ccccc2)NC(=O)[C@H](Cc2ccccc2)NC(=O)[C@H](C)NC1=O [EE-2C] (HELM PEPTIDE1{A.C.E.M.A.F.F.Q.D.C.G.[am]}$PEPTIDE1,PEPTIDE1,2:R3-10:R3$$$V2.0; bridges inferred) | 32 |

Same assay, conditions: SPR, in words

| Molecule | binding to eIF4E compared with EE-02 |
| --- | --- |
| CSCC[C@@H]1NC(=O)[C@H](CCC(=O)O)NC(=O)[C@@H](NC(=O)[C@H](C)N)CSSC[C@@H](C(=O)NCC(N)=O)NC(=O)[C@H](CC(=O)O)NC(=O)[C@H](CCC(N)=O)NC(=O)[C@H](Cc2ccccc2)NC(=O)[C@H](Cc2ccc(O)cc2)NC(=O)CNC1=O [EE-30] (HELM PEPTIDE1{A.C.E.M.G.Y.F.Q.D.C.G.[am]}$PEPTIDE1,PEPTIDE1,2:R3-10:R3$$$V2.0) | bound more tightly than EE-02 |
| CSCC[C@@H]1NC(=O)[C@H](CCC(=O)O)NC(=O)[C@@H](NC(=O)[C@H](C)N)CSSC[C@@H](C(=O)NCC(N)=O)NC(=O)[C@H](CC(=O)O)NC(=O)[C@H](CCC(N)=O)NC(=O)[C@H](Cc2ccc(O)cc2)NC(=O)[C@H](Cc2ccccc2)NC(=O)CNC1=O [EE-35] (HELM PEPTIDE1{A.C.E.M.G.F.Y.Q.D.C.G.[am]}$PEPTIDE1,PEPTIDE1,2:R3-10:R3$$$V2.0) | bound more tightly than EE-02 |

These molecules were tested against T1, eIF4E (assay: Tryptophan quenching experiments). Conditions: 1 μM eIF4E, 0.01-20 μM titrant, excitation 290 nm, emission 355 nm; FIG. 2.
Format: binding
Experimental: Tryptophan Quenching Experiments
Tryptophan quenching experiments were performed using an EnVision® multiplate reader with black matte 96-well plates. […] Concentrations tested ranged from 0.01-20 μM. Samples were excited with UV light at 290 nm to minimise contribution from tyrosine fluorescence. Tryptophan was measured at an emission wavelength of 355 nm.

| Molecule | tryptophan quenching of eIF4E |
| --- | --- |
| KKRYSRDQLVAL (Synthetic peptide PHAGESOL) [reference compound] | significantly lower amounts of tryptophan quenching |
